Experimental data: patent US8765712B2, “Agent for preventing and treating pityriasis versicolor” (Justus-Liebig-Universitaet Giessen, priority 2009, dated 2014)
“Also recorded” adds a separate entry of the source.

Experiments:
pityriasis versicolor = experiment: Topical application in humans; assay type: in vivo
Source text: Transaminase inhibitors such as aminooxyacetate and/or cycloserine, e.g. D-cycloserine, DL-cycloserine, L-cycloserine or one of the derivatives thereof like e.g. terizidone are suitable for an application in humans. A topical application of 5% in unguentum emulsificans aquosum, applied over several days, is well tolerated without side effects. For prophylactic purposes, a 0.05-5% w/w preparation is used, preferably as shaking mixture/suspension cutanea aquosa, aqueous, oily, or alcoholic suspension, emulsion, paste, cream, ointment, spray, lipophilic gel, hydrophilic gel or plaster, shampoo, bath additive or mud, since the entire body should be treated if possible. For prophylaxis, application is performed daily up to several-day intervals. The same applies to the therapeutic use. D-cycloserine is preferably used in aqueous solution, e.g. 0.2 molar, adjusted to pH 7 with e.g. phosphate buffer.

M. furfur CBS 1878 = experiment: Agar diffusion assay on pigment-inducing medium (p-agar) with TRP as sole nitrogen source; assay type: cell-based, Malassezia furfur
Method: The pigment-inducing medium (p-agar) is composed of (for 1 liter medium)
After autoclaving for 30 min at 1 bar, the following is added:
At approx. 50° C., the following heat-labile component is added:
The pH value is approximately pH 5.0.
Each 25 ml of the medium are poured into petri dishes with a diameter of 10 cm. A suspension of M. furfur CBS 1878 (approx. 5 inoculation loops of a strain previously grown on Dixon's agar) is suspended in 1 ml aq. dest., transferred to the p-agar and spread by tilting the plate. […] The pigment composition can be determined after extraction and separation via thin layer chromatography.
For this purpose, M. furfur CBS 1878 is spread on the surface of an agar plate with pigment-inducing medium as describe above, subsequently 4 mm-holes are punched into the agar using a sterile punch. […] The agar diffusion assay is performed with transaminase inhibitor e.g. aminooxyacetate (Sigma) in water, which is adjusted to pH 5 with 1 n NaOH. Concentrations are 0.05 molar top left; 0.1 molar top right; 0.25 molar bottom left, and 0.5 molar bottom right.

M. furfur = experiment: Agar diffusion assay on complete medium Dixon's agar; conditions: 4 days, concentrations as in FIG. 1 (0.05-0.5 molar)
Method: For this purpose, an identical experimental approach as described above is chosen and the fungus is grown on a complete medium Dixon's agar for 4 days. Transaminase inhibitor, e.g. aminooxyacetate solution (e.g. Sigma) or D-cycloserine, DL-cycloserine, L-cycloserine or a derivative thereof such as e.g. terizidone, is added in above mentioned concentrations at the beginning of the experiment.

SMILES | suppression of pigment formation in vivo in humans (pityriasis versicolor) | suppression of pigment formation in vitro (M. furfur CBS 1878) | further results
NC1CONC1=O (racemic) [DL-cycloserine] | comparable suppression | comparable suppression | –
N[C@@H]1CONC1=O [D-cycloserine] | comparable suppression | comparable suppression | healing of lesions (pityriasis versicolor; aqueous solution 0.2 molar, pH 7 (phosphate buffer), twice a day, after three days): complete healing of lesions; side effects / tolerability (pityriasis versicolor; aqueous solution 0.2 molar, pH 7, twice a day): without side effects and is very well tolerated
N[C@H]1CONC1=O [L-cycloserine] | comparable suppression | comparable suppression | –
Cl.NOCC(=O)O.NOCC(=O)O [aminooxyacetate, O-(carboxymethyl)hydroxylamine hemihydrochloride] | – | – | effect of specific inhibition of transamination on complete medium (M. furfur): no effect; pigment synthesis (tryptophan-dependent pathway) (M. furfur CBS 1878; 4-days old culture, TRP as sole nitrogen source, 20 μl in 4 mm holes, 0.05, 0.1, 0.25, 0.5 molar in water, pH 5, hemihydrochloride): completely inhibited; also recorded: abolished; growth of the fungus (M. furfur CBS 1878; pigment-inducing medium, TRP as sole nitrogen source, 0.05-0.5 molar, pH 5): inhibited
O=C1NOCC1/N=C/c1ccc(/C=N/C2CONC2=O)cc1 (stereo not drawn) [terizidone] | – | inhibit pigment formation | –
